Where a SMILES comes first, the peptide text is derived from it. Bridges are numbered along the chain shown (N, C = ends). Roman numbers before positions name the chains, in order. [ ]: non-standard residue; d: D form. ξ: configuration not given here. 1Nal = N[C@@H](Cc1cccc2ccccc12)C(=O)O; ξK = NCCCCC(N)C(=O)O; Ava = NCCCCC(=O)O
Target: T1, EPOR (erythropoietin receptor), human recombinant, NSO cells (Homo sapiens, UniProt P19235)
T1 construct: host or cells: NSO cells
T1 sequence (P19235 25-250 limits assumed): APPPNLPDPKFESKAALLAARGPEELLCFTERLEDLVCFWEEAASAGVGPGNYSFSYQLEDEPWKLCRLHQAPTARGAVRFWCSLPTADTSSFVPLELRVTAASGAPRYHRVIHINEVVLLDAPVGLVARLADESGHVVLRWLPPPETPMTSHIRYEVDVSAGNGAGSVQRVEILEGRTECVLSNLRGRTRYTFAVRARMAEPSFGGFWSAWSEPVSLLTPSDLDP
Assay: EPOR radioligand binding assay ([125I] Erythropoietin competition)
Procedure: IC50 values were determined by a non-linear, least squares regression analysis using MATHIQ™ (computer software for integrating mathematical functions into new or existing software). […] Where presented, the Hill coefficient (nH), defining the slope of the competitive binding curve, was calculated using MATHIQ™.

[1] = Example 1, mimetics varied in N-end, loop and mid sequences

Compound	Ki [1] [nM]	IC50 (Example 4, first table) [nM]	also measured
CC[C@H](C)[C@@H]1NC(=O)[C@@H]2CCCN2C(=O)CNC(=O)[C@H](CCSC)NC(=O)[C@H](CCCNC(=N)N)NC(=O)[C@@H](NC(=O)[C@H](CC(C)C)NC(=O)[C@H](Cc2ccc(O)cc2)NC(=O)[C@H](CC(N)=O)NC(C)=O)CSSC[C@@H](C(=O)N[C@@H](CCCCN)C(=O)N2CCC[C@H]2C(=O)NCCCCC(=O)NCCCCC(NC(=O)[C@@H]2CCCN2C(=O)[C@H](CCCCN)NC(=O)[C@@H]2CSSC[C@H](NC(=O)[C@H](CC(C)C)NC(=O)[C@H](Cc3ccc(O)cc3)NC(=O)[C@H](CC(N)=O)NC(C)=O)C(=O)N[C@@H](CCCNC(=N)N)C(=O)N[C@@H](CCSC)C(=O)NCC(=O)N3CCC[C@H]3C(=O)N[C@@H]([C@@H](C)CC)C(=O)N[C@@H]([C@@H](C)O)C(=O)N[C@@H](Cc3c[nH]c4ccccc34)C(=O)N[C@@H](C(C)C)C(=O)N2)C(N)=O)NC(=O)[C@H](C(C)C)NC(=O)[C@H](Cc2c[nH]c3ccccc23)NC(=O)[C@H]([C@@H](C)O)NC1=O (stereo partly drawn) [AC-0005-003] (I: Ac-NYLCRMGPITWVCKP[ξK]-NH2 / II: Ac-NYLCRMGPITWVCKP[Ava]; disulfide I:4-I:13, II:4-II:13; amide I:16-II:C)	48		
CC[C@H](C)[C@@H]1NC(=O)[C@@H]2CCCN2C(=O)CNC(=O)[C@H](CCSC)NC(=O)[C@H](Cc2c[nH]cn2)NC(=O)[C@@H](NC(=O)[C@H](C)NC(=O)[C@H](Cc2ccc(O)cc2)NC(=O)[C@H](CC(C)C)NC(C)=O)CSSC[C@@H](C(=O)N[C@@H](CCC(N)=O)C(=O)NCCCCC(=O)NCCCCC(NC(=O)[C@H](CCC(N)=O)NC(=O)[C@@H]2CSSC[C@H](NC(=O)[C@H](C)NC(=O)[C@H](Cc3ccc(O)cc3)NC(=O)[C@H](CC(C)C)NC(C)=O)C(=O)N[C@@H](Cc3c[nH]cn3)C(=O)N[C@@H](CCSC)C(=O)NCC(=O)N3CCC[C@H]3C(=O)N[C@@H]([C@@H](C)CC)C(=O)N[C@@H]([C@@H](C)O)C(=O)N[C@@H](Cc3cccc4ccccc34)C(=O)N[C@@H](C(C)C)C(=O)N2)C(N)=O)NC(=O)[C@H](C(C)C)NC(=O)[C@H](Cc2cccc3ccccc23)NC(=O)[C@H]([C@@H](C)O)NC1=O (stereo partly drawn) [AC-0005-005] (I: Ac-LYACHMGPIT[1Nal]VCQ[ξK]-NH2 / II: Ac-LYACHMGPIT[1Nal]VCQ[Ava]; disulfide I:4-I:13, II:4-II:13; amide I:15-II:C)		> 10000	
CC[C@H](C)[C@@H]1NC(=O)[C@@H]2CCCN2C(=O)CNC(=O)[C@H](CCSC)NC(=O)[C@H](Cc2c[nH]cn2)NC(=O)[C@@H](NC(=O)[C@H](C)NC(=O)[C@H](Cc2ccc(O)cc2)NC(=O)[C@H](CC(C)C)NC(C)=O)CSSC[C@@H](C(=O)NCCCCC(=O)NCCCCC(NC(=O)[C@@H]2CSSC[C@H](NC(=O)[C@H](C)NC(=O)[C@H](Cc3ccc(O)cc3)NC(=O)[C@H](CC(C)C)NC(C)=O)C(=O)N[C@@H](Cc3c[nH]cn3)C(=O)N[C@@H](CCSC)C(=O)NCC(=O)N3CCC[C@H]3C(=O)N[C@@H]([C@@H](C)CC)C(=O)N[C@@H]([C@@H](C)O)C(=O)N[C@@H](Cc3cccc4ccccc34)C(=O)N[C@@H](C(C)C)C(=O)N2)C(N)=O)NC(=O)[C@H](C(C)C)NC(=O)[C@H](Cc2cccc3ccccc23)NC(=O)[C@H]([C@@H](C)O)NC1=O (stereo partly drawn) [AC-0005-006] (I: Ac-LYACHMGPIT[1Nal]VC[ξK]-NH2 / II: Ac-LYACHMGPIT[1Nal]VC[Ava]; disulfide I:4-I:13, II:4-II:13; amide I:14-II:C)		> 10000	
CC[C@H](C)[C@@H]1NC(=O)[C@@H]2CCCN2C(=O)CNC(=O)[C@H](CCSC)NC(=O)[C@H](Cc2c[nH]cn2)NC(=O)C(NC(=O)[C@H](C)NC(=O)[C@H](Cc2ccc(O)cc2)NC(=O)[C@H](CC(C)C)NC(C)=O)CCOCC(C(=O)N[C@@H](CCC(N)=O)C(=O)N2CCC[C@H]2C(=O)NCCCCC(=O)NCCCCC(NC(=O)[C@@H]2CCCN2C(=O)[C@H](CCC(N)=O)NC(=O)C2COCCC(NC(=O)[C@H](C)NC(=O)[C@H](Cc3ccc(O)cc3)NC(=O)[C@H](CC(C)C)NC(C)=O)C(=O)N[C@@H](Cc3c[nH]cn3)C(=O)N[C@@H](CCSC)C(=O)NCC(=O)N3CCC[C@H]3C(=O)N[C@@H]([C@@H](C)CC)C(=O)N[C@@H]([C@@H](C)O)C(=O)N[C@@H](Cc3cccc4ccccc34)C(=O)N[C@@H](C(C)C)C(=O)N2)C(N)=O)NC(=O)[C@H](C(C)C)NC(=O)[C@H](Cc2cccc3ccccc23)NC(=O)[C@H]([C@@H](C)O)NC1=O (stereo partly drawn) [AC-0005-007]		4950	Ki (Example 4, first table): 2350 nM

Further lines, with some results ahead:

Ki [1] [nM]	IC50 (Example 4, first table) [nM]	Compound	also measured
	> 10000	CC[C@H](C)[C@@H]1NC(=O)[C@@H]2CCCN2C(=O)CNC(=O)[C@H](CCSC)NC(=O)[C@H](CCCNC(=N)N)NC(=O)C(NC(=O)[C@H](C)NC(=O)[C@H](Cc2ccc(O)cc2)NC(=O)[C@H](CC(C)C)NC(C)=O)CCOCC(C(=O)NCCCCC(=O)NCCCCC(NC(=O)C2COCCC(NC(=O)[C@H](C)NC(=O)[C@H](Cc3ccc(O)cc3)NC(=O)[C@H](CC(C)C)NC(C)=O)C(=O)N[C@@H](CCCNC(=N)N)C(=O)N[C@@H](CCSC)C(=O)NCC(=O)N3CCC[C@H]3C(=O)N[C@@H]([C@@H](C)CC)C(=O)N[C@@H]([C@@H](C)O)C(=O)N[C@@H](Cc3cccc4ccccc34)C(=O)N[C@@H](C(C)C)C(=O)N2)C(N)=O)NC(=O)[C@H](C(C)C)NC(=O)[C@H](Cc2cccc3ccccc23)NC(=O)[C@H]([C@@H](C)O)NC1=O (stereo partly drawn) [AC-0005-008]	
22		CSCC[C@@H]1NC(=O)[C@H](CCCNC(=N)N)NC(=O)C(NC(=O)[C@H](CC(C)C)NC(=O)[C@H](Cc2ccc(O)cc2)NC(=O)[C@H](CC(N)=O)NC(C)=O)CCOCC(C(=O)N[C@@H](CCCCN)C(=O)N2CCC[C@H]2C(=O)NCCCCC(=O)NCCCCC(NC(=O)[C@@H]2CCCN2C(=O)[C@H](CCCCN)NC(=O)C2COCCC(NC(=O)[C@H](CC(C)C)NC(=O)[C@H](Cc3ccc(O)cc3)NC(=O)[C@H](CC(N)=O)NC(C)=O)C(=O)N[C@@H](CCCNC(=N)N)C(=O)N[C@@H](CCSC)C(=O)NCC(=O)N[C@@H](Cc3c[nH]c4ccccc34)C(=O)N[C@@H](C(C)C)C(=O)N2)C(N)=O)NC(=O)[C@H](C(C)C)NC(=O)[C@H](Cc2c[nH]c3ccccc23)NC(=O)CNC1=O (stereo partly drawn) [AC-0005-018]	IC50 (Example 4, fourth table): 70 nM; Ki (Example 4, fourth table): 33 nM; IC50 (Example 4, second table): 47 nM
27		CSCC[C@@H]1NC(=O)[C@H](CCCNC(=N)N)NC(=O)C(NC(=O)[C@H](CC(C)C)NC(=O)[C@H](Cc2ccc(O)cc2)NC(=O)[C@H](CC(N)=O)NC(C)=O)CCOCC(C(=O)N[C@@H](CCCCN)C(=O)N2CCC[C@H]2C(=O)NCCCCC(=O)NCCCCC(NC(=O)[C@@H]2CCCN2C(=O)[C@H](CCCCN)NC(=O)C2COCCC(NC(=O)[C@H](CC(C)C)NC(=O)[C@H](Cc3ccc(O)cc3)NC(=O)[C@H](CC(N)=O)NC(C)=O)C(=O)N[C@@H](CCCNC(=N)N)C(=O)N[C@@H](CCSC)C(=O)NCCC(=O)N[C@@H](Cc3c[nH]c4ccccc34)C(=O)N[C@@H](C(C)C)C(=O)N2)C(N)=O)NC(=O)[C@H](C(C)C)NC(=O)[C@H](Cc2c[nH]c3ccccc23)NC(=O)CCNC1=O (stereo partly drawn) [AC-0005-019]	IC50 (Example 4, second table): 57 nM
